Where two headings read alike, the source gives them in different places.
What was measured:
[1] = test system: Penicillium chrysogenum; test: MIC in malt yeast agar, Penicillium chrysogenum; assay type: cell-based, Penicillium chrysogenum (ATCC 9480); details: read-out: Minimum Inhibitory Concentration (MIC)
Description: (§1) The minimum inhibitory concentration (MIC) for the compounds listed in Table I is determined for bacteria, using nutrient agar, and 7 yeast and fungi, using malt yeast agar. A one percent solution of the test compound is prepared in a mixture of acetone and water.
(§2) Malt yeast agar is prepared by adding 3 g yeast extract and 45 g malt agar per liter of deionized water. The specific agar is dispensed in 30 mL aliquots into 25×200 mm test tubes, capped and autoclaved for 15 minutes at 115° C.
(§3) The test tubes containing the agar are cooled in a water bath until the temperature of the agar is 48° C. Then, an appropriate amount of the one percent solution of the test compound is added (except in the controls where no compound is added) to the respective test tubes so that the final concentrations are 500, 250, 100, 50, 25, 10, 2.5, 1.0 and zero parts per million of the test compound in the agar, thus having a known concentration of test compound dispersed therein. The contents of the test tubes are then transferred to respective petri plates. After drying for 24 hours, the petri plates containing nutrient agar are inoculated with bacteria and those containing malt yeast agar are inoculated with yeast and fungi.
(§4) The inoculation with the yeast and fungi is accomplished as follows. Cultures of yeast and fungi are incubated for seven days on malt yeast agar at 30° C. These cultures are used to prepare suspensions by the following procedure. A suspension of each organism is prepared by adding 10 mL of sterile saline and 10 microliters of octylphenoxy polyethoxy ethanol to the agar slant of yeast or fungi. The sterile saline/octylphenoxy polyethoxy ethanol solution is then agitated with a sterile swab to suspend the microorganism grown on the slant. Each resulting suspension is diluted into sterile saline (1 part suspension: 9 parts sterile saline). Aliquots of these dilutions are placed in individual wells of Steer's Replicator and petri plates inoculated as previously described. The petri plates are incubated at 30° C. and read after 48 hours for yeast and 72 hours for fungi.
(§5) Table II lists the bacteria, yeast and fungi used in the MIC test described above along with their respective American Type Culture Collection (ATCC) identification numbers.
(§6) In Tables III and IV, the MIC values of the compounds described in Table I as compared to the MIC of a standard commercial preservative (with 1-(3-chloroalkyl)-3,5,7-triaza-1-azoniaadamantane chloride as the active agent and referred to in Tables III and IV as "STANDARD I") are set forth for the bacteria organisms and yeast/fungi organisms which are listed in Table II.

[2] = test system: Bacillus subtilis; test: MIC in nutrient agar, Bacillus subtilis; assay type: cell-based, Bacillus subtilis (ATCC 8473)
Description: as §1
(§7) Nutrient agar is prepared at pH 6.8, representing a neutral medium, and at pH 8.2, representing an alkaline medium. The nutrient agars are prepared by adding 23 g of nutrient agar to one-liter of deionized water. In addition, the alkaline medium is prepared by adjusting a 0.04M solution of N-(tris-(hydroxymethyl)methyl)glycine buffered deionized water with concentrated sodium hydroxide to a pH of 8.5.
as §3
(§8) The inoculation with bacteria is accomplished by using the following procedure. Twenty-four hour-cultures of each of the bacteria are prepared by incubating the respective bacteria in tubes containing nutrient broth for 24 hours at 30° C. in a shaker. Dilutions of each of the 24 hour-cultures are made so that nine separate suspensions (one for each of the nine test bacteria) are made, each containing 10^8 colony forming units (CFU) per mL of suspension of a particular bacteria. Aliquots of 0.3 mL of each of the bacterial suspensions are used to fill the individual wells of Steer's Replicator. For each microbial suspension, 0.3 mL was used to fill three wells (i.e., three wells of 0.3 mL each) so that for the nine different bacteria, 27 wells are filled. The Steer's Replicator is then used to inoculate both the neutral and alkaline pH nutrient agar petri plates.
(§9) The inoculated petri plates are incubated at 30° C. for 48 hours and then read to determine if the test compound which is incorporated into the agar prevented growth of the respective bacteria.
as §5, §6

[3] = test system: Candida albicans; test: MIC in malt yeast agar, Candida albicans; assay type: cell-based, Candida albicans (ATCC 10231); details: read-out: Minimum Inhibitory Concentration (MIC)
Description: as §1, §2, §3, §4, §5, §6

[4] = test system: Fusarium oxysporum; test: MIC in malt yeast agar, Fusarium oxysporum; assay type: cell-based, Fusarium oxysporum (ATCC 48112); details: read-out: Minimum Inhibitory Concentration (MIC)
Description: as §1, §2, §3, §4, §5, §6

[5] = test system: Salmonella choleraesuis; test: MIC in nutrient agar, Salmonella choleraesuis; assay type: cell-based, Salmonella choleraesuis (ATCC 10708); details: Salmonella enterica
Description: as §1, §7, §3, §8, §9, §5, §6

[6] = test system: Pseudomonas aeruginosa (PRD-10); test: MIC in nutrient agar, Pseudomonas aeruginosa (PRD-10); assay type: cell-based, Pseudomonas aeruginosa (ATCC 15442)
Description: as §1, §7, §3, §8, §9, §5, §6

[7] = test system: Proteus vulgaris; test: MIC in nutrient agar, Proteus vulgaris; assay type: cell-based, Proteus vulgaris (ATCC 881)
Description: as §1, §7, §3, §8, §9, §5, §6

[8] = test system: Escherichia coli; test: MIC in nutrient agar, Escherichia coli; assay type: cell-based, Escherichia coli (ATCC 11229)
Description: as §1, §7, §3, §8, §9, §5, §6

[9] = test system: Aureobasidium pullulan; test: MIC in malt yeast agar, Aureobasidium pullulan; assay type: cell-based, Aureobasidium pullulan (ATCC 16622); details: read-out: Minimum Inhibitory Concentration (MIC)
Description: as §1, §2, §3, §4, §5, §6

[10] = test system: Saccharomyces cerevisiae; test: MIC in malt yeast agar, Saccharomyces cerevisiae; assay type: cell-based, Saccharomyces cerevisiae (ATCC 4105); details: read-out: Minimum Inhibitory Concentration (MIC)
Description: as §1, §2, §3, §4, §5, §6

[11] = test system: Pseudomonas aeruginosa; test: MIC in nutrient agar, Pseudomonas aeruginosa (Pa); assay type: cell-based, Pseudomonas aeruginosa (ATCC 10145)
Description: as §1, §7, §3, §8, §9, §5, §6

[12] = test system: Staphylococcus aureus; test: MIC in nutrient agar, Staphylococcus aureus; assay type: cell-based, Staphylococcus aureus (ATCC 6538)
Description: as §1, §7, §3, §8, §9, §5, §6

[13] = test system: Trichoderma viride; test: MIC in malt yeast agar, Trichoderma viride; assay type: cell-based, Trichoderma viride (ATCC 8678); details: read-out: Minimum Inhibitory Concentration (MIC)
Description: as §1, §2, §3, §4, §5, §6

[14] = test system: Enterobacter aerogenes; test: MIC in nutrient agar, Enterobacter aerogenes; assay type: cell-based, Enterobacter aerogenes (ATCC 13048); details: Klebsiella aerogenes
Description: as §1, §7, §3, §8, §9, §5, §6

[15] = test system: Klebsiella pneumonias; test: MIC in nutrient agar, Klebsiella pneumonias; assay type: cell-based, Klebsiella pneumonias (ATCC 8308)
Description: as §1, §7, §3, §8, §9, §5, §6

[16] = test system: Aspergillus niger; test: MIC in malt yeast agar, Aspergillus niger; assay type: cell-based, Aspergillus niger (ATCC 16404); details: read-out: Minimum Inhibitory Concentration (MIC)
Description: as §1, §2, §3, §4, §5, §6

[17] = Pc, malt yeast agar, 30° C., 72 hours for fungi
[18] = Bs, pH 6.8, 30° C., 48 hours, read-out: Minimum Inhibitory Concentration (MIC)
[19] = Bs, pH 8.2, 30° C., 48 hours, read-out: Minimum Inhibitory Concentration (MIC)
[20] = Ca, malt yeast agar, 30° C., 48 hours for yeast
[21] = Fo, malt yeast agar, 30° C., 72 hours for fungi
[22] = Sc, pH 6.8, 30° C., 48 hours, read-out: Minimum Inhibitory Concentration (MIC)
[23] = Sc, pH 8.2, 30° C., 48 hours, read-out: Minimum Inhibitory Concentration (MIC)
[24] = PRD, pH 6.8, 30° C., 48 hours, read-out: Minimum Inhibitory Concentration (MIC)
[25] = PRD, pH 8.2, 30° C., 48 hours, read-out: Minimum Inhibitory Concentration (MIC)
[26] = Pv, pH 6.8, 30° C., 48 hours, read-out: Minimum Inhibitory Concentration (MIC)
[27] = Pv, pH 8.2, 30° C., 48 hours, read-out: Minimum Inhibitory Concentration (MIC)
[28] = Ec, pH 6.8, 30° C., 48 hours, read-out: Minimum Inhibitory Concentration (MIC)
[29] = Ec, pH 8.2, 30° C., 48 hours, read-out: Minimum Inhibitory Concentration (MIC)
[30] = Ap, malt yeast agar, 30° C., 72 hours for fungi
[31] = Sc, malt yeast agar, 30° C., 48 hours for yeast
[32] = Pa, pH 6.8, 30° C., 48 hours, read-out: Minimum Inhibitory Concentration (MIC)
[33] = Pa, pH 8.2, 30° C., 48 hours, read-out: Minimum Inhibitory Concentration (MIC)
[34] = Sa, pH 6.8, 30° C., 48 hours, read-out: Minimum Inhibitory Concentration (MIC)
[35] = Sa, pH 8.2, 30° C., 48 hours, read-out: Minimum Inhibitory Concentration (MIC)
[36] = Tv, malt yeast agar, 30° C., 72 hours for fungi
[37] = Ea, pH 6.8, 30° C., 48 hours, read-out: Minimum Inhibitory Concentration (MIC)
[38] = Ea, pH 8.2, 30° C., 48 hours, read-out: Minimum Inhibitory Concentration (MIC)
[39] = Kp, pH 6.8, 30° C., 48 hours, read-out: Minimum Inhibitory Concentration (MIC)
[40] = Kp, pH 8.2, 30° C., 48 hours, read-out: Minimum Inhibitory Concentration (MIC)
[41] = An, malt yeast agar, 30° C., 72 hours for fungi
[42] = 48 h, pH 6.8, read-out: Minimum Inhibitory Concentration (MIC)
[43] = 48 h, pH 8.2, read-out: Minimum Inhibitory Concentration (MIC)

Measured: MIC

N#CSCOc1nsnc1Cl [Example 6, 4-Chloro-3-thiocyanato-methyloxo-1,2,5-thiadiazole]
50 µg/mL: [11]; [32] | [11]; [33] | [14]; [37] | [14]; [38]
25 µg/mL: [2]; [19] | [5]; [23] | [7]; [27] | [8]; [28] | [8]; [29] | [12]; [34] | [12]; [35] | [13]; [36] | [15]; [39] | [15]; [40]
100 µg/mL: [6]; [24] | [6]; [25]
< 10 µg/mL: [1]; [17] | [2]; [18] | [3]; [20] | [4]; [21] | [5]; [22] | [7]; [26] | [9]; [30] | [10]; [31] | [16]; [41]

N#CSc1nsnc1Cl [Example 1, 4-Chloro-3-thiocyanato-1,2,5-thiadiazole]
> 500 µg/mL: [5]; [43] | [6]; [43] | [7]; [43] | [8]; [43] | [11]; [43] | [12]; [43] | [14]; [43] | [15]; [43]
500 µg/mL: [2]; [43]
50 µg/mL: [6]; [42] | [14]; [42]
< 10 µg/mL: [1]; 72 h | [3]; 48 h | [4]; 72 h | [9]; 72 h | [10]; 48 h | [13]; 72 h | [16]; 72 h
25 µg/mL: [2]; [42] | [5]; [42] | [7]; [42] | [8]; [42] | [11]; [42] | [12]; [42] | [15]; [42]

N#CSCSc1nsnc1Cl [Example 3, 4-chloro-3-thiomethylthiocyanato-1,2,5,-thiadiazole]
< 10 µg/mL: [1]; [17] | [2]; [18] | [3]; [20] | [4]; [21] | [6]; [24] | [7]; [26] | [9]; [30] | [10]; [31] | [13]; [36] | [16]; [41]
100 µg/mL: [11]; [33] | [14]; [38]
25 µg/mL: [2]; [19] | [5]; [22] | [6]; [25] | [7]; [27] | [8]; [28] | [11]; [32] | [12]; [34] | [14]; [37] | [15]; [39]
50 µg/mL: [5]; [23] | [8]; [29] | [12]; [35] | [15]; [40]

N#CSCCSc1nsnc1SCCSC#N [Example 5, Bis(thioethylthiocyanato)-1,2,5-thiadiazole]
< 10 µg/mL: [1]; [17] | [9]; [30] | [10]; [31] | [16]; [41]
100 µg/mL: [3]; [20]
> 500 µg/mL: [2]; [18] | [2]; [19] | [5]; [22] | [5]; [23] | [6]; [24] | [6]; [25] | [7]; [26] | [7]; [27] | [8]; [28] | [8]; [29] | [11]; [32] | [11]; [33] | [12]; [34] | [12]; [35] | [13]; [36] | [14]; [37] | [14]; [38] | [15]; [39] | [15]; [40]
250 µg/mL: [4]; [21]
